Consider eight compounds from PubChem BioAssay (NCI).

What all share (experiment): NCI-60 cell line screen, 48 h
The test system of test [1] is COLO 205 colon.
Test [2] concerns HOP-62 NSCLC.
The test system of test [3] is HT29 colon.
In test [4] the test system is KM12 colon.
The test system of test [5] is M14 melanoma.
In test [6] the test system is NCI-H226 lung.
Test [7] deals with NCI-H522 lung.
Test [8] concerns OVCAR-4 ovarian.
For test [9], the system named is SK-MEL-2 melanoma.
In test [10] the test system is TK-10 renal.

Each structure is given as a SMILES string. Several values for one entry are separate records, joined by “and”; a condition that tells them apart may be missing. Equal entries are not always repeated.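 A five-concentration, 48-hour dose response in 96-well plates underlies each endpoint, interpolated linearly between surrounding concentrations. GI50: concentration for 50% inhibition of growth. The concentration for full growth arrest is given as TGI.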 Where only a bound is given, the exact number is not on record here.

On to `Nc1n[nH]c2ccc([C@H]3[C@@H]4C5CCC(C5)[C@@H]4c4c(ccc5[nH]ncc45)N3S(=O)(=O)C3CC3)cc12` (some centres not stated), for which the GI50 in test [1] is 0.193 µM; in test [2] it was 0.335 µM; in [3] it was 0.171 µM; in test [4] it was 0.199 µM; in test [5] it was 0.146 µM; in test [6] it was 0.441 µM. The GI50 in [7] was 0.183 µM; in test [8], 2.63 µM; in test [9], 0.343 µM; in [10], 3.98 µM. Moreover, the TGI in test [1] is 6.31 µM; in [2] it was 20.7 µM; in test [3], 8.52 µM; in test [4], 6.32 µM; in [5], 15.1 µM; in [6], 10.1 µM. For the same compound, the TGI was 2.56 µM in [7], more than 50 µM in test [8], 14.5 µM in test [9] and 36.4 µM in test [10].
For `CC(=O)N[C@@H](Cc1ccc(OP(=O)(O)O)cc1)C(=O)N[C@H]1CCC(=O)N2CCC[C@@H](C(=O)NCc3cccc4ccccc34)N2C1=O`, the GI50 in test [1], in test [2], in test [3], in test [4], in test [5] and in test [6] was more than 25 µM each time. The GI50 in [7], in test [8], in test [9] and in [10] was more than 25 µM in each case. Moreover, the TGI in test [1], in [2], in test [3], in [4], in [5] and in test [6] was more than 25 µM in each case. For the same compound, the TGI in [7], in [8], in test [9] and in [10] was more than 25 µM in each case.
Take `COc1ncnn2ccc(-c3cnc4nc(C)n(Cc5nnc(C(C)F)o5)c4c3)c12` (configuration not stated): the GI50 in test [1] is 0.11 µM; in test [3], 0.253 µM; in test [4], 0.116 µM; in test [5] it was 0.24 µM; in [6] it was 0.156 µM; in test [7], 0.0859 µM. Also, the GI50 is 0.278 µM in test [8], 0.0748 µM in [9] and 0.367 µM in test [10]. Also, the TGI is 0.468 µM in test [1]; 0.631 µM in test [3]; more than 100 µM in test [4]; more than 40.5 µM in [5]; 0.949 µM in test [6]; 0.363 µM in [7]. Further, the TGI in test [8] was 0.995 µM; in test [9] it was 0.236 µM; in test [10], more than 100 µM.
As for `COc1cccc(Nc2ncnn3ccc(CN4CC[C@@H](N)[C@H](O)C4)c23)c1`, the GI50 is 3.73 µM and 3.13 µM in test [1]; 4.22 µM and 0.506 µM in test [2]; 8.67 µM and > 2.25 µM in [3]; 3.31 µM and 2.88 µM in test [4]; 20.4 µM and > 5.03 µM in test [5]; 2.66 µM and 1.38 µM in test [6]. In addition, the GI50 was 0.0245 µM and 0.0175 µM in [7]; 13.3 µM and > 5.11 µM in test [8]; 19.9 µM and > 4.7 µM in [9]; 0.0322 µM and 0.0167 µM in test [10]. Moreover, the TGI in [1] was 18.2 µM and > 6.18 µM; in test [2], 27.3 µM and > 10 µM; in [3] it was more than 56.6 µM; in test [4], 15.3 µM and > 10 µM; in [5], 36 µM and > 10 µM; in test [6] it was 13 µM and > 8.94 µM. In addition, the TGI in [7] is 15.1 µM and > 4.56 µM; in test [8], 55.4 µM and > 10 µM; in test [9], 39.8 µM and > 7.19 µM; in [10], 1.65 µM and 1.5 µM.
In the case of `COC(=O)Nc1nc2ccc(C(=O)C3CC3)cc2[nH]1`, the GI50 in test [1] was 0.392 µM; in [2], 0.523 µM; in test [3], 0.295 µM; in test [4] it was 0.283 µM; in [5], 0.276 µM; in test [6] it was 0.423 µM. The GI50 in test [7] is 0.426 µM; in test [8], 0.551 µM; in test [9], 3.31 µM; in [10] it was 1.38 µM. The TGI in [1] was 10.4 µM; in [2] it was more than 42.2 µM; in [3], 6.31 µM; in test [4], 1.68 µM; in test [6], 30.2 µM; in test [7], 16.4 µM. The TGI in test [8] is more than 100 µM; in test [9] it was more than 70.1 µM; in [10], 47.2 µM.
As to `COC(=O)c1oc([N+](=O)[O-])c(-c2ccccc2)c1-c1ccccc1`, the TGI in test [1], in test [2], in test [3], in test [4], in [5] and in [6] was more than 100 µM throughout. Besides, the TGI in [7], in test [8], in [9] and in test [10] was more than 100 µM throughout.
With `COc1ccc2c(c1)OC(N)=C(C#N)C2c1ccc(F)c(F)c1` (configuration not stated), the GI50 was 0.437 µM in test [1]; 0.515 µM in test [2]; 0.318 µM in [3]; 0.349 µM in [4]; 0.325 µM in [5]; 19.2 µM in test [6]. The GI50 in test [7] was 0.255 µM; in test [8], 2.33 µM; in test [9], 0.343 µM; in test [10] it was 14.7 µM. Also, the TGI in test [1] was 5.2 µM; in test [2] it was more than 92.2 µM; in test [3] it was 4.77 µM; in test [4] it was 26 µM; in test [5], more than 100 µM; in test [6] it was more than 100 µM. Moreover, the TGI is 9.25 µM in [7], more than 100 µM in test [8], more than 93.7 µM in [9] and more than 100 µM in [10].
On to `Cc1ccc(C)c(N2C(=O)C(=O)C(c3nc4ccccc4s3)C(=O)C2=O)c1`, for which the TGI in [1], in test [2], in test [3], in test [4], in test [5] and in test [6] was more than 100 µM in each case. Besides, the TGI in test [7], in test [8], in [9] and in test [10] was more than 100 µM each time.
